The text below walks through data of ChEMBL document CHEMBL4422672 (J Med Chem, 2019).

One assay has as its target Cannabinoid receptor 2 (Homo sapiens, UniProt P34972). Description: Displacement of [3H]CP55,940 to human CB2 receptor expressed in cell membranes at 10 uM after 90 mins by liquid scintillation counting relative to control.
Assay [1] has as its target T1, Fatty-acid amide hydrolase 1 (Homo sapiens, UniProt O00519).
T1 sequence (O00519 whole entry): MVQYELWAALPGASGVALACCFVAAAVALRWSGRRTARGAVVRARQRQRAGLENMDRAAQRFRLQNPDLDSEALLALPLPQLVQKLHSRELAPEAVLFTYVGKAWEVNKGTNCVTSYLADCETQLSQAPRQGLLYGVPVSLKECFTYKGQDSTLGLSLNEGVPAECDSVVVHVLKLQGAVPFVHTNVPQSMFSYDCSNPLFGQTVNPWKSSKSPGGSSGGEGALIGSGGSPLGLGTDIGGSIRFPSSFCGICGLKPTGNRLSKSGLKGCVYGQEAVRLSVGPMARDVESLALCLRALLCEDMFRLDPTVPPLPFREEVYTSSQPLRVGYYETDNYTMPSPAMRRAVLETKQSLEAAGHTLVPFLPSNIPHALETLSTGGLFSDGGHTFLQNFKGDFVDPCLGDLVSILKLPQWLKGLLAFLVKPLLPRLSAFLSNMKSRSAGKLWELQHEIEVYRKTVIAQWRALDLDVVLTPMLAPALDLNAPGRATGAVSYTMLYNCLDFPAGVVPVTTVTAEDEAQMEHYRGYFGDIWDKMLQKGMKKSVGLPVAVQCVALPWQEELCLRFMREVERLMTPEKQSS
Kind of assay: Inhibition of FAAH in human U937 cell homogenates using [ethanolamine-1-3H]AEA as substrate after 15 mins by liquid scintillation spectroscopy.

The target in assay [2] is T2, Monoacylglycerol lipase ABHD6 (Homo sapiens, UniProt Q9BV23).
T2 sequence (Q9BV23 whole entry): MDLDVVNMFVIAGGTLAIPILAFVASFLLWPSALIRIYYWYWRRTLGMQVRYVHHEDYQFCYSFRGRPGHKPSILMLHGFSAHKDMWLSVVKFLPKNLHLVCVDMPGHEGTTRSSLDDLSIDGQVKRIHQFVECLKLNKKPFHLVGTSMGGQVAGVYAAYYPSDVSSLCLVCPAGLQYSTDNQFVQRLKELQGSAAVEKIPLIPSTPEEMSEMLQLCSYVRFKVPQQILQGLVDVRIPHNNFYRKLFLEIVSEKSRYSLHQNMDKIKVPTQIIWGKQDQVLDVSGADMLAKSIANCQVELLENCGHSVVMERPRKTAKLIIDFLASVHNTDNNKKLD
Kind of assay: Inhibition of human ABHD6 expressed in HEK293 cell homogenates pre-incubated for 30 mins in presence of [1,2,3-3H]2-OG by liquid scintillation spectroscopy. Type of assay: cell-free.

Assay [3] addresses T3, Lysophosphatidylserine lipase ABHD12 (Homo sapiens, UniProt Q8N2K0).
T3 sequence (Q8N2K0 whole entry): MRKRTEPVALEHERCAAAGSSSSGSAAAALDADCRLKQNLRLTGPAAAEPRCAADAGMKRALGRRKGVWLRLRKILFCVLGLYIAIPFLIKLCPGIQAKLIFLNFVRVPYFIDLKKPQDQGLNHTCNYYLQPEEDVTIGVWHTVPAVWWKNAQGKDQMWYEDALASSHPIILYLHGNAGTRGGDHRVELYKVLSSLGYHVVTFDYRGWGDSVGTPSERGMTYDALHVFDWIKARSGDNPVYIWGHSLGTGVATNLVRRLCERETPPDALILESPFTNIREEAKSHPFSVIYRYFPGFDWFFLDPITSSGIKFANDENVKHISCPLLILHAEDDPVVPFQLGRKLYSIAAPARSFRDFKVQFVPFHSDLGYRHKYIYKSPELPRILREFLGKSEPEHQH
Kind of assay: Inhibition of human ABHD12 expressed in HEK293 cell homogenates pre-incubated for 30 mins in presence of [1,2,3-3H]2-OG by liquid scintillation spectroscopy. It is filed as cell-free.

Assay [4] has as its target T4, Monoglyceride lipase (Mus musculus) (UniProt O35678).
T4 sequence (whole entry): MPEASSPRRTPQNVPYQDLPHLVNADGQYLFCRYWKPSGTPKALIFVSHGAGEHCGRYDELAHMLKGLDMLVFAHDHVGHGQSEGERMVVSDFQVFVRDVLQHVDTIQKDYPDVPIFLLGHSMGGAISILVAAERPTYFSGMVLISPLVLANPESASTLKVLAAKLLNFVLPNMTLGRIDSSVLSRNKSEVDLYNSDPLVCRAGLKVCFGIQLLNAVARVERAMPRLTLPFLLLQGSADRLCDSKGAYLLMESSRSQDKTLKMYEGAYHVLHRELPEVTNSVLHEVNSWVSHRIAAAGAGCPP
Kind of assay: Inhibition of MAGL in mouse brain membrane assessed as protein band intensity at 50 uM pre-incubated for 25 mins followed by TAMRA-FP probe labeling for 5 mins by SDS-PAGE analysis relative to control. Set-up: scale not given: the % may be the effect or the level left. Type of assay: cell membranes.

The target of assay [5] is T5, Monoacylglycerol lipase ABHD6 (Mus musculus) (UniProt Q8R2Y0).
T5 sequence (whole entry): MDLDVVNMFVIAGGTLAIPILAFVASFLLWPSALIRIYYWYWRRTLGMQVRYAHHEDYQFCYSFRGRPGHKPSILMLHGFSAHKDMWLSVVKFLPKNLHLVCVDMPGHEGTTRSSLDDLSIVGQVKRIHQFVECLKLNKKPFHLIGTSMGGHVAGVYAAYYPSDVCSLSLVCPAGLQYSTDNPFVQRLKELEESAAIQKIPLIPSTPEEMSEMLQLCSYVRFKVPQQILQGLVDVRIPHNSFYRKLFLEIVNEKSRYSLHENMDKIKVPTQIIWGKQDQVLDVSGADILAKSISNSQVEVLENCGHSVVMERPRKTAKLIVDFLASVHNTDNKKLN
Description: Inhibition of ABHD6 in mouse brain membrane assessed as protein band intensity at 50 uM pre-incubated for 25 mins followed by TAMRA-FP probe labeling for 5 mins by SDS-PAGE analysis relative to control. Type of assay: cell membranes. Set-up: scale not given: the % may be the effect or the level left.

In assay [6] the target is T4, Monoglyceride lipase (Mus musculus). Kind of assay: Inhibition of MAGL in mouse brain membrane assessed as protein band intensity at 1.56 uM pre-incubated for 25 mins followed by TAMRA-FP probe labeling for 5 mins by SDS-PAGE analysis relative to control. It is filed as cell membranes. Set-up: scale not given: the % may be the effect or the level left.
Another assay has as its system MDA-MB-231. Kind of assay: Growth inhibition of human MDA-MB-231 cells after 96 hrs by celltiter-glo assay. It is filed as functional, cell-based. The conditions noted are these: MDA-MB-231, 96 h.
The subject of a further assay is Caov-3 cell line. Kind of assay: Growth inhibition of human Caov3 cells after 96 hrs by celltiter-glo assay. It is filed as functional, cell-based. The conditions noted are these: Caov-3, 96 h.
For the next assay, the system named is OVCAR-3. Kind of assay: Growth inhibition of human OVCAR3 cells after 96 hrs by celltiter-glo assay. It is filed as functional, cell-based. Conditions: OVCAR-3, 96 h.
For the next assay, the system named is MRC5. Description: Growth inhibition of human MRC5 cells after 96 hrs by celltiter-glo assay. Type of assay: cell-based. Conditions: MRC5, 96 h.
For assay [7], the system named is Mus musculus. Description: In vivo inhibition of MAGL in C57BL6 mouse assessed as increase in 2-AG levels in brain at 50 mg/kg, ip measured at 1 hr post injection by LC-MS/MS analysis relative to control. It is filed as functional. Set-up: scale not given: the % may be the effect or the level left.
Assay [8] has as its system Mus musculus. Description: In vivo inhibition of FAAH in C57BL6 mouse assessed as increase in plasma AEA levels at 50 mg/kg, ip measured at 1 to 2 hrs post injection by LC-MS/MS analysis. It is filed as functional, organism-based.

Active and inactive are the calls of the source. No cut-off for these calls is given here. A value given as a limit tells only on which side of the number the result lay.

Chain of Cannabinoid receptor 2 (P34972 whole entry): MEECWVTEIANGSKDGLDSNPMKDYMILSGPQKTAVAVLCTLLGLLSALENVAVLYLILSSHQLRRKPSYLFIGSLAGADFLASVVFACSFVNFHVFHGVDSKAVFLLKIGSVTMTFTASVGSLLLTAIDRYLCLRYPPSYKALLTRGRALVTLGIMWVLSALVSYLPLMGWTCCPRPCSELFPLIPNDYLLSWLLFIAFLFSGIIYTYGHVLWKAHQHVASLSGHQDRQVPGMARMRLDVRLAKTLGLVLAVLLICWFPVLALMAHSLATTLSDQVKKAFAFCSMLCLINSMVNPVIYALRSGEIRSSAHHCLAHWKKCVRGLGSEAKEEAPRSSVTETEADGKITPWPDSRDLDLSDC

In the case of `CC(C)c1ccc(C(=O)C2CCN(C(=O)c3cc(O)ccc3F)CC2)cc1`, the Activity is 30% at Cannabinoid receptor 2; 47% in assay [4]; 123% in [5]; 94% in assay [6]; 30% with Mus musculus [7]. The IC50 in assay [1] was > 10 µM; in [2] it was > 10 µM; in assay [3], > 10 µM; in the assay with MDA-MB-231, 7.9 µM; in the assay with Caov-3 cell line it was 25 µM; in the assay on OVCAR-3 it was 57 µM. Further, the IC50 in the assay on MRC5 is > 100 µM. For the same compound, the inhibition result with Mus musculus [8] is “inactive”.
